Entries after “also recorded” stand apart in the source; their conditions may differ.
Key:
barnacles = details: reported pharmacological compounds; cited from earlier work
[1] = adsorption of biocides onto CuO and ZnO nanoparticles in o-xylene, non-adsorbed biocide by HPLC-UV; type: physicochemical; details: biocide 50 mM
Method: To 50 ml of the solvent o-xylene, the biocide was added at a total concentration of 50 mM. Nano-particles (Sigma-Aldrich Sweden AB, Stockholm, Sweden) were then added in relevant concentrations according to the test protocol and after each addition the concentration of non-adsorbed Medetomidine (Orion Pharma, Helsinki, Finland) was measured with a standard HPLC-UV technique. The UV-absorbance maximum of Medetomidine was, from the literature, found to be 220 nm. Prior to the HPLC analysis the UV-absorbance maximum was investigated in order to verify the value given from the literature using a UV-spectrometer (GBC 920 UV/visible spectrometer, Scientific Equipments Ltd., Victoria, Australia).
The samples were analysed on a HPLC-UV system consisting of a Merck-Hitachi L-6200 pump (Merck-Hitachi, Darmstadt, Germany), a Supelco Discovery® (Sigma-Aldrich Sweden AB, Stockholm, Sweden) C18 (25 cm×4.6 mm, 5 m) column fitted with a prefilter (0.5 μm) and a Spectra-Physics Spectra 100 UV (Spectra-Physics Inc, Irvine Calif., USA) operating at 220 nm. The mobile phase was MilliQ-water:Acetonitrile (0.1% TFA v/v (mobile phase A): 0.1% TFA v/v (mobile phase B)) run over a gradient (6% B for two min then an increase up to 60% B in 15 min, a further increase up to 100% B in 3 min and then isocratic for 3 min before returning to the starting values in 2 min) at a flow rate of […]. The peak separation was monitored by UV (220 nm). Manual injections of 100 micro-liter were made and the data was collected and integrated using the Millenium software (version 3.20, 1999)(Waters Inc, Milford Mass., USA).

[2] = CuO (5 μm) instead of nanoparticle, o-xylene
Method: The different nanoparticles used (ZnO, CuO, Al2O3, MgO, TiO2, CO3O4) were bought from Sigma (Sigma-Aldrich Sweden AB, Stockholm, Sweden) and used without further purification. 50 ml of o-xylene was added to a beaker to which 50 mM of Medetomidine (Orion Pharma, Helsinki, Finland) was added. Nanoparticles were then added and after each addition the amount of free Medetomidine was measured with HPLC-UV (as in example 1 above).

Row | Medetomidine adsorption onto micrometer sized particle [2] | Structure (SMILES) | effect on attachment / settlement of barnacles (barnacles) | adsorption of antifouling agent onto nanoparticles [1]
1 |  | CC(C)C[C@H]1C(=O)N2CCC[C@H]2[C@]2(O)O[C@](NC(=O)[C@@H]3C=C4c5cccc6[nH]c(Br)c(c56)C[C@H]4N(C)C3)(C(C)C)C(=O)N12 [(+)-Bromocriptine] | inhibitory properties | 
2 |  | CCCN1CCc2cccc3c2[C@H]1Cc1ccc(O)c(O)c1-3 [R (−)-NPA] | inhibitory properties | 
3 |  | CSc1nc(NC2CC2)nc(NC(C)(C)C)n1 [igarol, 2-methylthio-4-tert-butylamino-6-cyclopropylamino-s-triziane] |  | exhibited adsorption
4 | negligible | Cc1cccc(C(C)c2cnc[nH]2)c1C (racemic) [Medetomidine, (S,R)-4(5)-[1-(2,3-dimethylphenyl)ethyl]-1H-imidazole] | efficient inhibitor | Large fractions of Medetomidine are adsorbed already at low particle concentrations; also recorded: best adsorption
5 |  | O=C(c1ccc(F)cc1)C1CCN(CCn2c(=O)[nH]c3ccccc3c2=O)CC1 [Ketanserin] | inhibitory properties | 
6 |  | CN(C)C(=O)Nc1ccc(Cl)c(Cl)c1 [diuron, 3-(3,4-dichlorophenyl)-1,1-dimethylurea] |  | exhibited adsorption
7 |  | CCCCCCCCn1sc(Cl)c(Cl)c1=O [SeaNine, 4,5-dichloro-2-n-octyl-3(2H)-isothiazolone] |  | exhibited adsorption

Source: patent US7662222B2, “Method and use of nanoparticles to bind biocides in paints” (I-Tech AB, priority 2005, dated 2010)
